Active and inactive are the calls of the source. The rule behind the calls is not given here.
Target: Hepatocyte growth factor receptor (Mus musculus) (UniProt P16056)
Assay: Inhibition of TPR-Met phosphorylation in mouse BAF3 cells at 10 uM after 2 hrs by Western blot analysis
Format: cell-based

Hepatocyte growth factor receptor (Mus musculus), sequence (P16056 whole entry): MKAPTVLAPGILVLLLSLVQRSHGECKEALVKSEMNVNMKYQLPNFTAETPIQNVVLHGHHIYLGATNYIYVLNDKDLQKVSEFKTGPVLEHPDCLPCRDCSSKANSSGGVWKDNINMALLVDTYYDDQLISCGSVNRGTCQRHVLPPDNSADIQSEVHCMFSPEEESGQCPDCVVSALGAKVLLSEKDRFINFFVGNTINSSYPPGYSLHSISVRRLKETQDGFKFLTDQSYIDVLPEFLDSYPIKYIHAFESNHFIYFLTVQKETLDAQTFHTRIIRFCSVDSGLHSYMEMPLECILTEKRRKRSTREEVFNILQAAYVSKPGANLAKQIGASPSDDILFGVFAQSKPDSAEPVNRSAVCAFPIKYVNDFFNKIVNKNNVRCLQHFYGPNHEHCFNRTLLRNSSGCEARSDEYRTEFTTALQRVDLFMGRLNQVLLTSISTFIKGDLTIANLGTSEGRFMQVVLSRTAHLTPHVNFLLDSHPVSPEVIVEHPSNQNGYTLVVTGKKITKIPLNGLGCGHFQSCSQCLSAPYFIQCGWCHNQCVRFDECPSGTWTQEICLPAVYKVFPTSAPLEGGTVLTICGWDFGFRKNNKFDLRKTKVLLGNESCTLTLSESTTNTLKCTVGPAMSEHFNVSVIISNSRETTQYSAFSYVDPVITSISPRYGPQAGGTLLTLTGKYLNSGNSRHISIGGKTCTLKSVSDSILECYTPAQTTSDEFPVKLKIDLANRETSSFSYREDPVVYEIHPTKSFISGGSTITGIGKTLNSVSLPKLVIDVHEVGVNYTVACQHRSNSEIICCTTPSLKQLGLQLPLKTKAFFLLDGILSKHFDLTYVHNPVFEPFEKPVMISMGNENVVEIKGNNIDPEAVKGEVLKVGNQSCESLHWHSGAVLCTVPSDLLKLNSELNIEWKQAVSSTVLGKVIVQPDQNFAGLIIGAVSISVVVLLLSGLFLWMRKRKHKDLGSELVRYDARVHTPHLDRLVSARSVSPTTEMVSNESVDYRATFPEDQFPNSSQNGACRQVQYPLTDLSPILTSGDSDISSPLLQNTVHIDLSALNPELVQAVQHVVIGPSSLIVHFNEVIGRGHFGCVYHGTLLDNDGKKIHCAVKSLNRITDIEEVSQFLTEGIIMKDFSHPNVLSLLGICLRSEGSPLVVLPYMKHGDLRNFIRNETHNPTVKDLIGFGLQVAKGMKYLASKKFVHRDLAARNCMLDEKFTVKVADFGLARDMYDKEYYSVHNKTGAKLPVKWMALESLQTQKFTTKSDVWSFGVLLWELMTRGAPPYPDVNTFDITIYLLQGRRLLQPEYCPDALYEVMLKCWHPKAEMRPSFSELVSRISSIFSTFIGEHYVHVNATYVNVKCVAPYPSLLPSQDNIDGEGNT

Structure (SMILES)	inhibition
Cc1cc(-c2ccc(Nc3cc(S(=O)(=O)O)c(N)c4c3C(=O)c3ccccc3C4=O)c(C)c2)ccc1Nc1cc(S(=O)(=O)O)c(N)c2c1C(=O)c1ccccc1C2=O	inactive
CC(=O)Nc1ccc(-c2ccc(Nc3cc(S(=O)(=O)O)c(N)c4c3C(=O)c3ccccc3C4=O)cc2)cc1	inactive
Nc1ccc(-c2ccc(Nc3cc(S(=O)(=O)O)c(N)c4c3C(=O)c3ccccc3C4=O)cc2)cc1	inactive
Nc1c(S(=O)(=O)O)cc(Nc2ccc(-c3ccc(Nc4ncccn4)cc3)cc2)c2c1C(=O)c1ccccc1C2=O	inactive
Cc1cc(-c2ccc(Nc3cc(S(=O)(=O)O)c(N)c4c3C(=O)c3ccccc3C4=O)c(C)c2)ccc1N	inactive

Continued, values first:

inhibition	Structure (SMILES)
inactive	Nc1c(S(=O)(=O)O)cc(Nc2ccc(Cc3ccc(Nc4cc(S(=O)(=O)O)c(N)c5c4C(=O)c4ccccc4C5=O)cc3)cc2)c2c1C(=O)c1ccccc1C2=O
inactive	Nc1c(S(=O)(=O)O)cc(Nc2ccc(-c3ccc(Nc4cc(S(=O)(=O)O)c(N)c5c4C(=O)c4ccccc4C5=O)cc3)cc2)c2c1C(=O)c1ccccc1C2=O
inactive	Cc1cc(Nc2cc(S(=O)(=O)O)c(N)c3c2C(=O)c2ccccc2C3=O)ccc1-c1ccc(Nc2cc(S(=O)(=O)O)c(N)c3c2C(=O)c2ccccc2C3=O)cc1C
